21 compounds from patent publication US20240376073A1 (Hoffmann-La Roche Inc., priority 2021, published 2024) can be followed below.

Structures can show the parent of a compound that is named as a salt.

One assay concerns Acinetobacter baumannii ATCC17961. The assay can be described thus: Antimicrobial susceptibility testing: 90% growth inhibitory concentration (IC90) determination. Format: cell-based. The settings on record: Acinetobacter baumannii ATCC17961; Iso-Sensitest broth; growth by OD 600 nm over 16 h; 35±2° C.; read-out: ATCC 17961 IC90. The method, then:
The in vitro antimicrobial activity of the compounds was determined according to the following procedure:
The assay used a 10-points Iso-Sensitest broth medium to measure quantitatively the in vitro activity of the compounds against Acinetobacter baumannii ATCC17961.
Stock compounds in DMSO were serially twofold diluted (e.g. range from 50 to 0.097 μM final concentration) in 384 wells microtiter plates and inoculated with 49 μl the bacterial suspension in Iso-Sensitest medium to have a final cell concentration of ˜5×10^(5) CFU/ml in a final volume/well of 50 ul/well. Microtiter plates were incubated at 35±2° C.
Bacterial cell growth was determined with the measurement of optical density at λ=600 nm each 20 minutes over a time course of 16 h. Growth inhibition was calculated during the logarithmic growth of the bacterial cells with determination of the concentration inhibiting 50% (IC50) and 90% (IC90) of the growth.
Table 1 provides the […] growth inhibitory concentrations (IC90) in micromoles per liter of the compounds of present invention obtained against the strain Acinetobacter baumannii ATCC17961.
One may read the IC90 as the concentration at which the effect reaches the 90% level. For `Cn1c(-c2ccc(OC(F)F)c(F)c2F)cnc1C(=O)Nc1ccc(C(=O)N2CCN(C(=O)[C@H]3[C@@H]4C[N+](C)(CC(N)=O)C[C@@H]43)CC2)c(Cl)c1` (mixture of isomers) [Example C4, N-[4-[4-[(1R,5S)-3-(2-amino-2-oxo-ethyl)-3-methyl-3-azoniabi-cyclo[3.1.0]-hexane-6-carbonyl]-piperazine-1-carbonyl]-3-chloro-phenyl]-5-[4-(difluoro-methoxy)-2,3-difluoro-phen-yl]-1-methyl-imidazole-2-carboxamide; formate], the IC90 was found to be 31 nM. On the same count and under the same terms, the result for `Cn1c(-c2ccc(OCF)c(F)c2F)cnc1C(=O)Nc1ccc(C(=O)N2CCN(C(=O)[C@H]3[C@@H]4C[N+](C)(CC(=O)O)C[C@@H]43)CC2)c(Cl)c1` (mixture of isomers) [Example C30, 2-[(1R,5S)-6-[4-[2-chloro-4-[[5-[2,3-difluoro-4-(fluoromethoxy)phenyl]-1-meth-yl-imidazole-2-carbonyl]amino]-benzoyl]piper-azine-1-carbon-yl]-3-methyl-3-azoniabicyclo-[3.1.0]hexan-3-yl]acetic acid; 2,2,2-trifluoro-acetate] reads 540 nM; that for `COc1ccc(-c2cnc(C(=O)Nc3ccc(C(=O)N4CCC(CC[N+](C)(C)C)CC4)c(Cl)c3)n2C)c(F)c1F` [Example A1, 2-[1-[2-Chloro-4-[[5-(2,3-difluoro-4-methoxy-phenyl)-1-methyl-imidazole-2-carbonyl]amino]benzoyl]-4-piperidyl]ethyl-trimethyl-ammonium;formate], 79 nM; that for `COc1ccc(-c2cnc(C(=O)Nc3ccc(C(=O)NCCCCC[N+](C)(C)C)c(Cl)c3)n2C)c(F)c1F` [Example A2, 5-[[2-Chloro-4-[[5-(2,3-difluoro-4-methoxy-phenyl)-1-methyl-imidazole-2-carbonyl]amino]benzoyl]amino]pentyl-trimethyl-ammonium;formate], 340 nM. As to `COc1ccc(-c2cnc(C(=O)Nc3ccc(C(=O)NCCCCC[N+](C)(C)CC(N)=O)c(Cl)c3)n2C)c(F)c1F` [Example A3, (2-amino-2-oxo-ethyl)-[5-[[2-chloro-4-[[5-(2,3-difluoro-4-methoxy-phenyl)-1-methyl-imidazole-2-carbonyl]amino]benzoyl]amino]pentyl]-dimethyl-ammonium; formate], the IC90 was 160 nM. Consider `COc1ccc(-c2cnc(C(=O)Nc3ccc(C(=O)N4CCN(CC[N+](C)(C)CC(N)=O)CC4)c(Cl)c3)n2C)c(F)c1F` [Example A4, (2-amino-2-oxo-ethyl)-[2-[4-[2-chloro-4-[[5-(2,3-difluoro-4-methoxy-phenyl)-1-methyl-imidazole-2-carbonyl]amino]benzoyl]piperazin-1-yl]ethyl]-dimethyl-ammonium; formate], for which the concentration for an effect of 90% (IC90) was found to be 210 nM. Still for that read-out and setting: to `CCc1cc(NC(=O)c2ncc(-c3ccc(OC)c(F)c3F)n2C)ccc1C(=O)NCCOCC[N+](C)(C)C` [Example A5, 2-(2-(4-(5-(2,3-difluoro-4-methoxyphenyl)-1-methyl-1H-imidazole-2-carboxamido)-2-ethylbenzamido)ethoxy)-N,N,N-trimethylethan-1-aminium iodide] belongs 460 nM; to `CCc1cc(NC(=O)c2ncc(-c3ccc(OC)c(F)c3F)n2C)ccc1C(=O)N1CCN(CCC[N+](C)(C)C)CC1` [Example A6, 3-(4-(4-(5-(2,3-difluoro-4-methoxyphenyl)-1-methyl-1H-imidazole-2-carboxamido)-2-ethylbenzoyl)piperazin-1-yl)-N,N,N-trimethylpropan-1-aminium iodide], 1500 nM; to `Cc1cc(NC(=O)c2ncc(-c3ccc(OCC#N)c(F)c3F)n2C)ccc1C(=O)N1CCN(C(=O)C[N+](C)(C)C)CC1` [Example A8, [2-[4-[4-[[5-[4-(cyanomethoxy)-2,3-difluoro-phenyl]-1-methyl-imidazole-2-carbonyl]amino]-2-methyl-benzoyl]piperazin-1-yl]-2-oxo-ethyl]-trimethyl-ammonium; iodide], 310 nM.

With `COc1ccc(-c2cnc(C(=O)Nc3ccc(C(=O)N4CCN(CC[N+](C)(C)C)CC4)c(Cl)c3)n2C)c(F)c1F` [Example A9, 2-[4-[2-chloro-4-[[5-(2,3-difluoro-4-methoxy-phenyl)-1-methyl-imidazole-2-carbonyl]amino]benzoyl]piperazin-1-yl]ethyl-trimethyl-ammonium; iodide], the IC90 amounted to 130 nM. `COc1ccc(-c2cnc(C(=O)Nc3ccc(C(=O)N[C@H]4C[C@@H](NC(=O)C[N+](C)(C)C)C4)c(Cl)c3)n2C)c(F)c1F` [Example A10, [2-[[3-[[2-Chloro-4-[[5-(2,3-difluoro-4-methoxy-phenyl)-1-methyl-imidazole-2-carbonyl]amino]benzoyl]amino]cyclobutyl]amino]-2-oxo-ethyl]-trimethyl-ammonium formate]: the IC90 was 84 nM. On to `COc1ccc(-c2cnc(C(=O)Nc3ccc(C(=O)N[C@H]4C[C@@H](NCC[N+](C)(C)C)C4)c(Cl)c3)n2C)c(F)c1F` [Example A11, 2-[[3-[[2-chloro-4-[[5-(2,3-difluoro-4-methoxy-phenyl)-1-methyl-imidazole-2-carbonyl]amino]benzoyl]amino]cyclobutyl]amino]ethyl-trimethyl-ammonium; formic acid; formate], for which the IC90 is 570 nM. The same measure, in the same setting: to `Cn1c(-c2ccc(OCC#N)c(F)c2F)cnc1C(=O)Nc1ccc(C(=O)NCCCNC(=O)C[N+](C)(C)C)c(Cl)c1` [Example A12, [2-[3-[[2-chloro-4-[[5-[4-(cyanomethoxy)-2,3-difluoro-phenyl]-1-methyl-imidazole-2-carbonyl]amino]benzoyl]amino]propylamino]-2-oxo-ethyl]-trimethyl-ammonium formate] belongs 350 nM; to `Cn1c(-c2ccc(OCC#N)c(F)c2F)cnc1C(=O)Nc1ccc(C(=O)NCCOCC[N+](C)(C)CC(N)=O)c(Cl)c1` [Example A13, (2-amino-2-oxo-ethyl)-[2-[2-[[2-chloro-4-[[5-[4-(cyanomethoxy)-2,3-difluoro-phenyl]-1-methyl-imidazole-2-carbonyl]amino]benzoyl]amino]ethoxy]ethyl]-dimethyl-ammonium formate], 640 nM. With `Cn1c(-c2ccc(OCC#N)c(F)c2F)cnc1C(=O)Nc1ccc(C(=O)NCCNC(=O)C[N+](C)(C)C)c(Cl)c1` [Example A14, [2-[2-[2-chloro-4-[[5-[4-(cyanomethoxy)-2,3-difluoro-phenyl]-1-methyl-imidazole-2-carbonyl]amino]benzoyl]amino]ethylamino]-2-oxo-ethyl]-trimethyl-ammonium formate], the IC90 came to 600 nM. The same measure, in the same setting: to `Cn1c(-c2ccc(OCC#N)c(F)c2F)cnc1C(=O)Nc1ccc(C(=O)NCCOCC[N+](C)(C)C)c(Cl)c1` [Example A15, 2-[2-[[2-chloro-4-[[5-[4-(cyanomethoxy)-2,3-difluoro-phenyl]-1-methyl-imidazole-2-carbonyl]amino]benzoyl]amino]ethoxy]ethyl-trimethyl-ammonium formate] belongs 770 nM; to `Cn1c(-c2ccc(OCC#N)c(F)c2F)cnc1C(=O)Nc1ccc(C(=O)N[C@H]2C[C@@H](NC(=O)C[N+](C)(C)C)C2)c(Cl)c1` [Example A16, [2-[[3-[2-chloro-4-[[5-[4-(cyanomethoxy)-2,3-difluoro-phenyl]-1-methyl-imidazole-2-carbonyl]amino]benzoyl]amino]cyclobutyl]amino]-2-oxo-ethyl]-trimethyl-ammonium formate], 88 nM; to `Cn1c(-c2ccc(OCC#N)c(F)c2F)cnc1C(=O)Nc1ccc(C(=O)N[C@H]2C[C@@H](NCC[N+](C)(C)C)C2)c(Cl)c1` [Example A17, 2-[[3-[[2-chloro-4-[[5-[4-(cyanomethoxy)-2,3-difluoro-phenyl]-1-methyl-imidazole-2-carbonyl]amino]benzoyl]amino]cyclobutyl]amino]ethyl-trimethyl-ammonium formate], 340 nM. Still for that read-out and setting: the result for `Cc1cc(NC(=O)c2ncc(-c3ccc(OCC#N)c(F)c3F)n2C)ccc1C(=O)N[C@H]1C[C@@H](NC(=O)C[N+](C)(C)C)C1` [Example A18, [2-[[3-[[4-[5-[4-(cyanomethoxy)-2,3-difluoro-phenyl]-1-methyl-imidazole-2-carbonyl]amino]-2-methyl-benzoyl]amino]cyclobutyl]amino]-2-oxo-ethyl]-trimethyl-ammonium formate] reads 240 nM.

The assay is the same for the next values; noted with them: Acinetobacter baumannii, ATCC17961, 16 h, read-out: ATCC 17961 IC90, Acinetobacter baumannii ATCC17961; Iso-Sensitest broth; growth by OD 600 nm over 16 h; 35±2° C.
For `Cn1c(-c2ccc(OCC#N)c(F)c2F)cnc1C(=O)Nc1ccc(C(=O)N2CCN(C(=O)C[N+](C)(C)C)CC2)c(Cl)c1` [Example A7, [2-[4-[2-chloro-4-[[5-[4-(cyanomethoxy)-2,3-difluoro-phenyl]-1-methyl-imidazole-2-carbonyl]amino]benzoyl]piperazin-1-yl]-2-oxo-ethyl]-trimethyl-ammonium; formate; iodide], the IC90 came to 93 nM.

The assay is the same for the next values; noted with them: read-out: ATCC 17961 IC90; Acinetobacter baumannii ATCC17961; Iso-Sensitest broth; growth by OD 600 nm over 16 h; 35±2° C.; formate.
`COc1ccc(-c2cnc(C(=O)Nc3ccc(C(=O)N4CCN(C(=O)C5C[C@H](O)C[N+]5(C)C)CC4)c(Cl)c3)n2C)c(F)c1F` (stereo in doubt) [Example B37, N-[3-chloro-4-[4-[(2R,4S)-4-hydroxy-1,1-dimethyl-pyrrolidin-1-ium-2-carbonyl]piperazine-1-carbonyl]phenyl]-5-(2,3-difluoro-4-methoxy-phenyl)-1-methyl-imidazole-2-carboxamide; formate]: the IC90 was 190 nM.
